Laboratory results taken from patent US12527833B2, “Pharmaceutical composition made from hydrophobic phytochemicals dispersed in sesame oil to enhance bioactivity” (ARJUNA NATURAL PVT. LTD., priority 2017, dated 2026).

Assays:
[1] = test system: Carrageenan induced paw edema; assay: Carrageenan paw edema in rats: different ratios of Boswellia and sesame oil (Example 10); type: in vivo
Procedure: The animals were housed in polypropylene cages and maintained under standard animal house conditions (12:12 hour light/dark cycle at 24±2° C. and 45-65% relative humidity). The rats had free access to standard pellet diet and water. 27 rats were divided into 9 groups comprising of 3 rats in each group. The rats were deprived of food, but had free access to drinking water for 12 h prior to the experiment. The treatment was as follows: After 12 hour fasting, baseline paw volume was recorded for each rat using digital plethysmometer (Ugo Basile, […]). Carrageenan (0.1 ml of 1%) in saline (0.9% NaCl) was injected into the plantar surface of the right hind paw of the animals. The experimental groups were given the designated extract/standard orally, 30 minutes prior to the injection of the carrageenan. After injection of carrageenan, paw volume was recorded at 3 hr to 6 hr post carrageenan. The edema was expressed as an increase in the volume of paw from baseline value, and the percentage of inhibition for each rat was calculated. Different compositions of sesame oil with boswellia was tested to find out the optimum ratio with enhanced activity. Each composition of boswellia has undergone a regress milling and grinding resulting in SSA of greater than 1.2×10^3 m^2/kg. • Group 1: 50 mg/Kg AKBA10+Sesame oil (2:3). • Group 2: 50 mg/Kg, AKBA10+Sesame oil (5:7) • Group 3: 50 mg/Kg AKBA10+Sesame oil (9:11) • Group 4: 50 mg/Kg AKBA10+Sesame oil (1:3) • Group 5: 50 mg/Kg AKBA10+Sesame oil (1:5) • Group 6: 50 mg/Kg AKBA10+Sesame oil (1:9) • Group 7: 50 mg/Kg AKBA10+Sesame oil (1:1) • Group 8: 50 mg/Kg AKBA10+Sesame oil • Group 9: 10 mg/Kg Diclofenac

[2] = test system: Carrageenan induced paw edema; assay: Carrageenan paw edema in rats: blends of Boswellia extract with edible oils (Example 7); type: in vivo
Procedure: The animals were housed in polypropylene cages and maintained under standard animal house conditions (12:12 hour light/dark cycle at 24±2° C. and 45-65% relative humidity). The rats had free access to standard pellet diet and water. 24 rats were divided into 8 groups comprising of 3 rats in each group. The rats were deprived of food, but had free access to drinking water for 12 h prior to the experiment. The treatment was as follows: After 12 hour fasting, baseline paw volume was recorded for each rat using digital plethysmometer (Ugo Basile, […]). Carrageenan (0.1 ml of 1%) in saline (0.9% NaCl) was injected into the plantar surface of the right hind paw of the animals. The experimental groups were given the designated extract/standard orally, 30 minutes prior to the injection of the carrageenan. After injection of carrageenan, paw volume was recorded at 3 hr. to 6 hr. post carrageenan. The edema was expressed as an increase in the volume of paw from baseline value, and the percentage of inhibition for each rat was calculated. Each composition of boswellia was obtained through standard mixing of boswellia extract with vegetable oil. • Group 1: 10 mg/Kg Diclofenac. • Group 2: 82 mg/Kg Hydrophobic blend of Boswellia extract (10% AKBA) with sesame oil (2:3). • Group 3: 82 mg/Kg Hydrophobic Boswellia extract (10% AKBA) with coconut oil (2:3). • Group 4: 82 mg/Kg Hydrophobic Boswellia extract (10% AKBA) with olive oil (2:3). • Group 5: 82 mg/Kg Hydrophobic Boswellia extract (10% AKBA) with rice bran (2:3). • Group 6: 82 mg/Kg Hydrophobic Boswellia extract (10% AKBA) with Cotton seed oil (2:3). • Group 7: 82 mg/Kg Hydrophobic Boswellia extract (10% AKBA) with Boswellia fat (2:3). • Group 8: 50 mg/Kg Homogenized dispersion hydrophobic Boswellia extract with 10% AKBA with sesame oil with 10% sesame lignans. (BS-4).

## O=C(O)Cc1ccccc1Nc1c(Cl)cccc1Cl [Diclofenac]
[1]; 3 hr post carrageenan, oral, AKBA10+sesame oil 50 mg/Kg, SSA >1.2×10^3 m^2/kg, Diclofenac 10 mg/kg
  Percentage inhibition (%) 3HR: 66%
[1]; 6 hr post carrageenan, oral, AKBA10+sesame oil 50 mg/Kg, Diclofenac 10 mg/kg
  Percentage inhibition (%) 6HR: 98%
[1]; average of 3HR and 6HR
  Average percentage inhibition: 82%
[2]; average of 3HR and 6HR, doses as in table
  Avrage percentage inhibition: 68.3%
[2]; paw edema 3 hr post carrageenan, oral 30 min before, Diclofenac 10, oil blends 82, BS-4 50 mg/kg
  Percentage inhibition (%) 3HR: 66.67%
[2]; paw edema 6 hr post carrageenan, oral 30 min before, Diclofenac 10, oil blends 82, BS-4 50 mg/kg
  Percentage inhibition (%) 6HR: 69.94%
